Test results reported in ChEMBL document CHEMBL1154471, “Lanostane-type triterpenoids from the sclerotia of Inonotus obliquus possessing anti-tumor promoting activity” (Eur J Med Chem, 2008).

Experiments:
[1] = system: Raji; test: Inhibition of TPA-induced EBV-early antigen activation in human Raji cells assessed as EA activation at 1000 molar ratio after 48 hrs relative to TPA; type: cell-based; parameters: scale not given: the % may be the effect or the level left; conditions: human gammaherpesvirus 4
[2] = Inhibition of TPA-induced EBV-early antigen activation in human Raji cells assessed as EA activation; type: cell-based, human gammaherpesvirus 4
[3] = system: Raji; test: Inhibition of TPA-induced EBV-early antigen activation in human Raji cells assessed as EA activation at 500 molar ratio after 48 hrs relative to TPA; type: cell-based; parameters: scale not given: the % may be the effect or the level left; conditions: human gammaherpesvirus 4
[4] = system: Raji; test: Inhibition of TPA-induced EBV-early antigen activation in human Raji cells assessed as EA activation at 100 molar ratio […] relative to TPA; type: cell-based; parameters: scale not given: the % may be the effect or the level left; conditions: human gammaherpesvirus 4
[5] = system: Raji; test: Inhibition of TPA-induced EBV-early antigen activation in human Raji cells assessed as EA activation at 10 molar ratio […] relative to TPA; type: cell-based; parameters: scale not given: the % may be the effect or the level left; conditions: human gammaherpesvirus 4
[6] = Cytotoxicity against human Raji cells assessed as cell viability at 1000 molar ratio by trypan blue staining relative to control; type: cell-based; conditions: read-out: Activity
[7] = system: Mus musculus; test: Inhibition of DMBA-induced/TPA-promoted carcinogenesis in mouse assessed as number of mouse bearing papillomas at 85 nmol administered twice weekly after 1 week of initiation for 11 weeks; type: functional; parameters: scale not given: the % may be the effect or the level left
[8] = system: Mus musculus; test: Inhibition of DMBA-induced/TPA-promoted carcinogenesis in mouse assessed as number of skin papillomas per mouse at 85 nmol administered twice weekly after 1 week of initiation for 11 weeks; type: functional
[9] = system: Mus musculus; test: Inhibition of DMBA-induced/TPA-promoted carcinogenesis in mouse assessed as number of mouse bearing papillomas at 85 nmol administered twice weekly after 1 week of initiation for 20 weeks; type: functional; parameters: scale not given: the % may be the effect or the level left
[10] = system: Mus musculus; test: Inhibition of DMBA-induced/TPA-promoted carcinogenesis in mouse assessed as number of skin papillomas per mouse at 85 nmol administered twice weekly after 1 week of initiation for 20 weeks; type: functional

Row | SMILES | Activity [1] [%] | IC50 [2] [molar ratio] | Activity [3] [%] | Activity [4] [%] | Activity [5] [%] | viability at 1000 molar ratio [6] [%] | Activity [7] [%] | Activity [8] | Activity [9] [%] | Activity [10]
1 | C[C@H]([C@H](O)/C=C/C(C)(C)O)[C@H]1CC[C@@]2(C)C3=CC[C@H]4C(C)(C)[C@@H](O)CC[C@]4(C)C3=CC[C@]12C | 0 | 228 | 25.1 | 67.3 | 88.2 | 70 |  |  |  | 
2 | CC(C)=CCC[C@@H](CO)[C@H]1CC[C@@]2(C)C3=C(CC[C@]12C)[C@@]1(C)CC[C@H](O)C(C)(C)[C@@H]1CC3 | 10.9 | 392 | 47.1 | 77.5 | 100 | 70 |  |  |  | 
3 | CC1(C)CC[C@]2(C(=O)O)CC[C@]3(C)C(=CC[C@@H]4[C@@]5(C)CC[C@H](O)C(C)(C)[C@@H]5CC[C@]43C)[C@@H]2C1 [OLEANOLIC_ACID] | 12.7 | 389 | 30 | 80 | 100 |  |  |  |  | 
4 | CC(C)=CCC[C@@H](C=O)[C@H]1CC[C@@]2(C)C3=C(CC[C@]12C)[C@@]1(C)CC[C@H](O)C(C)(C)[C@@H]1CC3 | 0 | 232 | 35.1 | 64 | 90.4 | 70 | 33.3 | 1.2 | 73.3 | 3.8
5 | C[C@H]([C@H](O)/C=C/C(C)(C)O)[C@H]1CC[C@@]2(C)C3=C(CC[C@]12C)[C@@]1(C)CC[C@H](O)C(C)(C)[C@@H]1CC3 | 0 | 231 | 26.9 | 69.8 | 89.2 | 70 |  |  |  | 
